Experimental data from patent US6365623B1, “Treatment of acne using lipoic acid” (priority 1997, dated 2002).
“And” between values parts separate entries of the source, which are not always exact repeats. Equal entries are not always repeated.

Experiments:
[1] = tested on: patients with acne vulgaris and/or acneiform scars; experiment: Clinical study of 5% lipoic acid cream applied to the face, assessed by a dermatologist; type: in vivo, human
Procedure: The following examples are presented to further illustrate and explain the present invention and should not be taken as limiting in any regard. Unless otherwise indicated, all percentages are by weight. Lipoic acid was supplied by the Henkel Corporation and was placed into a lecithin-based oil-in-water cream at a level of 5% for use by acne patients. This composition was used in the studies unless otherwise indicated.
Eight patients with acne vulgaris and/or acneiform scars were evaluated and photographed at the beginning of the study. The patients were asked to cleanse their faces with Cetaphil™ lotion twice daily, and then to apply the test lipoic acid composition. Clinical evaluations were made every four weeks thereafter. Photographs were retaken at the end of twelve weeks, and five patients continued treatment for up to a year.
The following parameters were reported in clinical assessments by a dermatologist in the follow-up evaluations:
1. visibly apparent changes in erythema
2. visibly apparent changes in pore size

[2] = Skin penetration after topical application; type: in vivo; settings: four hours after application to skin
Description: While not wishing to be bound to any theory, it is possible that lipoic acid is efficacious in the treatment of acne because it is both fat- and water-soluble and readily disperses in cell membranes and other cellular components. […] Because of its solubility, it is sometimes referred to as a universal antioxidant. It acts as a free radical scavenger and neutralizer, and prevents the cross-linking of cell membranes that is often seen in acne in its post-inflammatory phases. By the same token, LA modulation of free radicals and other oxidative species affects gene expression, including expression of nuclear factor κ-B (NF-κB), nitric oxide synthetase and other mediators at all stages of proinflammation and inflammation. Lipoic acid's alteration of lipid peroxidation, protein cross-linking, growth factor stimulation, and membrane permeability may explain its negative effect on the symptoms of acne.

[3] = tested on: affected skin areas; experiment: Adverse side effects in clinical studies to date (topical application); type: in vivo, human
Description: Generally in the practice of the method of the invention, the composition is topically applied to the affected skin areas in a predetermined or as-needed regimen either at intervals by application of a lotion or the like, it generally being the case that gradual improvements is noted with each successive application.

[4] = 5% lipoic acid in lecithin-based oil-in-water cream, topical twice daily, one value per patient (Pt. #1-#8)

With `O=C(O)CCCCC1CCSS1` (centres unmarked) [lipoic acid, 1,2-dithiolane-3-pentanoic acid] the “improvement in two patients with severe atrophic acne scars” value ([1]; 5% cream, topical twice daily) was 80%, the “improvement of atrophic scars, all patients with atrophic scars” value ([1]; 5% cream, topical twice daily) was “improved” and the “change in pustules, papules, and comedones” value ([1]; 5% cream, within three to four weeks, benefits continued to increase over three to four months) was “marked decrease”. For the same molecule, the “Erythema % Improvement” value [1, 4] was 80% (3×) and 50% (5×), the “Pore Size % Improvement” value [1, 4] was 50% (3×) and 90% (5×) and the “Scar Depth % Improvement” value [1, 4] was 50% (4×) and 80% (2×) and 70% (2×). For the same molecule, the “concentration in sebaceous gland tissue” value [2] was “high concentrations” and the adverse side effects [3] was “no adverse side effects”.
